Experimental data reported in paper PMC11487536 (ACS Pharmacology & Translational Science, 2024).
“And” between values parts separate entries of the source, which are not always exact repeats. Equal values may be shown once.

What was measured:
[1] = biological target: T1, sensing domain of P. fluorescens CtaA (Pseudomonas fluorescens, UniProt Q3K7T6); assay: Thermal shift assay; type: binding; conditions: for Midpoint Transition Temperature in Presence of Ligand, Tm: 5 μM CtaA, ligand 20 μM, pH 5.5
T1 sequence (Q3K7T6 30-277): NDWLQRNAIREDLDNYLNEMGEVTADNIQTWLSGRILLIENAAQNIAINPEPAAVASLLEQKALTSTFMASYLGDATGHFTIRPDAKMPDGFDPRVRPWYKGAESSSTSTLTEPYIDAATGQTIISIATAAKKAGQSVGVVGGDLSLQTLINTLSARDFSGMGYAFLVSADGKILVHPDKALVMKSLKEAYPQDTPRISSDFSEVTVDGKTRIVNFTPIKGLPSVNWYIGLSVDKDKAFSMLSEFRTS

[2] = biological target: T2, sensing domain of C. jejuni Tlp3 (Campylobacter jejuni, UniProt Q0P864); assay: Thermal shift assay; type: binding; conditions: for Midpoint Transition Temperature in Presence of Ligand, Tm: 10 μM Tlp3, ligand 3 mM (L-valine 10 mM), pH 8.0
T2 sequence (Q0P864 41-290): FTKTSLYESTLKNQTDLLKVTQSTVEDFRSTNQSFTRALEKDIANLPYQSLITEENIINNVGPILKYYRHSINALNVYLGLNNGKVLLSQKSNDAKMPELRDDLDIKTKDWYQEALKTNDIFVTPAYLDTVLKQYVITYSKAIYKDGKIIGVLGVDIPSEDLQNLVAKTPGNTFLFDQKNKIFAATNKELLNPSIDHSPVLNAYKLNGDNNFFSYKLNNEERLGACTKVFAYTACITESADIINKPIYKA

TlpC = biological target: T3, TlpC (Helicobacter pylori, UniProt O24911); conditions: 25 °C; cited from earlier work
T3 sequence (O24911 32-299): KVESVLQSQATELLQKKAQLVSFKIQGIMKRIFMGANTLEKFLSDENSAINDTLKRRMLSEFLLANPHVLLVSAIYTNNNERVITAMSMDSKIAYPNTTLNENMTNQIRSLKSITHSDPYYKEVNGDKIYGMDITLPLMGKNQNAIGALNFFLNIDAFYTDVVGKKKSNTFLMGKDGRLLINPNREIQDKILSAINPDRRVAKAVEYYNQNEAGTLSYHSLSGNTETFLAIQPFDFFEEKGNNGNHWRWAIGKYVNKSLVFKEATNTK

SMILES	Kd [1]	Midpoint Transition Temperature in Presence of Ligand, Tm [1]	Midpoint Transition Temperature in Presence of Ligand, Tm [2]	ΔHL(T) from ITC (enthalpy of ligand binding) (TlpC)	Kd [2]
C[C@H](N)C(=O)O [L-Alanine, L-alanine]	4.6 µM and 3.2 µM	56.1 ± 0.1 °C	–	–	–
CC[C@H](C)[C@H](N)C(=O)O [L-Isoleucine, L-isoleucine]	–	–	64.5 ± 0.3 °C	–	–
C[C@H](O)C(=O)O [L-Lactate, L-lactate]	–	–	–	–21.32 kcal mol^–1	–
CC(C)C[C@H](N)C(=O)O [L-Leucine, L-leucine]	5 ± 1 µM	54.7 ± 0.3 °C	64.2 ± 0.2 °C	–	222 µM and 90 µM and 116 µM
CCC[C@H](N)C(=O)O [L-Norvaline, L-norvaline]	–	–	63.7 ± 0.3 °C	–	–
N[C@@H](CO)C(=O)O [L-Serine, L-serine]	9 µM and 4 µM	55.1 ± 0.3 °C	–	–	–
CC(C)[C@H](N)C(=O)O [L-Valine, L-valine]	1.5 µM and 1.2 µM	57.6 ± 0.2 °C	64.6 ± 0.3 °C	–	578 µM and 240 µM and 316 µM
